Measurements: patent US20240270821A1, “GIP/GLP1/GCG TRI-RECEPTOR AGONISTS AND USES THEREOF” (priority 2023, published 2024)
Where two headings read alike, the source gives them in different places. Starred links: 1 amine or outer side, 2 acyl side, 3 side chain; linkers in the order of their positions; H or OH if unused. Non-standard residues stand in square brackets, D forms with d. Residues, ends and D or L forms follow the SMILES beside them. Groups on a side chain read outwards from the residue. *: point of attachment. C20 diacid = O=C(O)CCCCCCCCCCCCCCCCCCC(=O)*; C18 diacid = O=C(O)CCCCCCCCCCCCCCCCC(=O)*; αMePhe(2-F) = C[C@](N)(Cc1ccccc1F)C(=O)O; γGlu = O=C(O)[C@H](CCC(=O)[*:2])N[*:1]; αMeY = C[C@](N)(Cc1ccc(O)cc1)C(=O)O; 4Pal = N[C@@H](Cc1ccncc1)C(=O)O; αMeL = CC(C)C[C@](C)(N)C(=O)O; αMeS = C[C@](N)(CO)C(=O)O; Orn = NCCC[C@H](N)C(=O)O; AEEA = NCCOCCOCC(=O)O; Aib = CC(C)(N)C(=O)O

Assays:
Type in all cases: cell-based
hGIPR [1] = target: T1, hGIPR (Homo sapiens, UniProt P48546); test: Functional cAMP activity in the presence of 1% HSA; details: read-out: cAMP Rel EC50, hGIPR
T1 sequence (P48546 22-466): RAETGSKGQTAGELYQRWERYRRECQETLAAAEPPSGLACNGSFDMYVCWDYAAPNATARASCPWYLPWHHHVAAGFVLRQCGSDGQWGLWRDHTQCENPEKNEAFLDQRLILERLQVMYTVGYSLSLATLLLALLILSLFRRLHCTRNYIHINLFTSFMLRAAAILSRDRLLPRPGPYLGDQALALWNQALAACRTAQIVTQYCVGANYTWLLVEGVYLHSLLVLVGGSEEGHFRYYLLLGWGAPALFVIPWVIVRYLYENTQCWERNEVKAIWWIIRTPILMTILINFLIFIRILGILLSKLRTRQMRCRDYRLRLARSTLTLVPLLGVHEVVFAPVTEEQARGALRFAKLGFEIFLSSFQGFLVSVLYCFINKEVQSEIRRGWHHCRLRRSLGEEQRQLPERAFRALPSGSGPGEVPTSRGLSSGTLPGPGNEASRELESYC

hGLP-1R [2] = target: T2, hGLP-1R (Homo sapiens, UniProt P43220); test: Functional cAMP activity in the presence of 1% HSA; details: read-out: cAMP Rel EC50, hGLP-1R
human GcgR = human GcgR (Homo sapiens, UniProt P47871); test: Functional cAMP activity in the presence of 1% HSA; details: read-out: cAMP Rel EC50, hGcgR
hGIPR [3] = target: T1, hGIPR; test: Functional cAMP activation in the presence of 0.1% casein (no HSA); details: in the presence of 0.1% casein (no HSA); geometric mean; read-out: Relative cAMP EC50, hGIPR;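 as to Relative cAMP EC50, hGIPR: intracellular cAMP rise after 30 min at 37 °C read by HTRF against a standard curve, scaled between buffer alone (0%) and top control ligand concentration (100%), four-parameter fit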;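 as to Relative cAMP EC50, hGLP-1R: intracellular cAMP rise after 30 min at 37 °C read by HTRF, normalized between buffer only (0%) and maximal control ligand (100%), four-parameter variable-slope fit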;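 as to Relative cAMP EC50, hGcgR: intracellular cAMP rise after 30 min at 37 °C, read by HTRF against a cAMP standard curve, scaled from buffer only (0%) to maximal control ligand response (100%)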
hGLP-1R [4] = target: T2, hGLP-1R; test: as above; details: in the presence of 0.1% casein (no HSA); geometric mean; read-out: Relative cAMP EC50, hGLP-1R
hGcgR = hGcgR (Homo sapiens, UniProt P47871); test: as above; details: in the presence of 0.1% casein (no HSA); geometric mean; read-out: Relative cAMP EC50, hGcgR;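 also: intracellular cAMP rise after 30 min at 37 °C, read by HTRF against a cAMP standard curve, scaled from buffer only (0%) to maximal control ligand response (100%)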
Chain of hGcgR (P47871 26-477): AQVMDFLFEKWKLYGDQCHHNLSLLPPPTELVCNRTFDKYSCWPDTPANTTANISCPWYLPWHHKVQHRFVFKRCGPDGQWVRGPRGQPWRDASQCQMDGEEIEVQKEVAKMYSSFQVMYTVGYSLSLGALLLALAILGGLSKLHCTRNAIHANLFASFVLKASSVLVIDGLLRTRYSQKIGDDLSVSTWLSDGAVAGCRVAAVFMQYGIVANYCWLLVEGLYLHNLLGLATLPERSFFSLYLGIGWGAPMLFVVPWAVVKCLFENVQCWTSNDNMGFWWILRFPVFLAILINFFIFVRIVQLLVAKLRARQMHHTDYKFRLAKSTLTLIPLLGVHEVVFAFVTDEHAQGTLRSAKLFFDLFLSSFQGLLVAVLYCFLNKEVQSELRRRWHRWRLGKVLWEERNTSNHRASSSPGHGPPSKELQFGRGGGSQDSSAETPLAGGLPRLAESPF

T2 sequence (P43220 24-463): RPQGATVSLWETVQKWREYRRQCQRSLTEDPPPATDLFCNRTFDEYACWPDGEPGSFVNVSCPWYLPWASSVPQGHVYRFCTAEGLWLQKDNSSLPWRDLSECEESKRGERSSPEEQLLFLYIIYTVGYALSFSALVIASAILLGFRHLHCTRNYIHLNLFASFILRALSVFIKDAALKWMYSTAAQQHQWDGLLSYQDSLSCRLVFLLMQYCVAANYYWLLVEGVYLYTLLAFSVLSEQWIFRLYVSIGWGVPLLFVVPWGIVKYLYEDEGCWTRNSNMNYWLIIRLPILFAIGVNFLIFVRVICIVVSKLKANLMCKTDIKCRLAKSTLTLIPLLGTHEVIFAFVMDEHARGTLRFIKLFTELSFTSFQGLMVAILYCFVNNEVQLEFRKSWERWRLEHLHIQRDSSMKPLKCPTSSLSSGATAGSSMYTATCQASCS
Chain of human GcgR (P47871 26-477): as the sequence (P47871 26-477) above

| EC50 (hGIPR [1]; HEK-293 clonal cells expressing hGIPR, in the presence of 1% HSA, geometric mean of relative EC50) [nM] | EC50 (hGLP-1R [2]; HEK-293 clonal cells expressing hGLP-1R, in the presence of 1% HSA, geometric mean of relative EC50) [nM] | EC50 (human GcgR; HEK-293 clonal cells expressing hGcgR, in the presence of 1% HSA, geometric mean of relative EC50) [nM] | Compound | EC50 (hGIPR [3]) [nM] | EC50 (hGLP-1R [4]) [nM] | EC50 (hGcgR) [nM] | EC50 (hGIPR [1]) [nM] | EC50 (hGLP-1R [2]) [nM] | EC50 (human GcgR) [nM] |
| --- | --- | --- | --- | --- | --- | --- | --- | --- | --- |
| 7.77 | 30.6 | 150 | CC[C@H](C)[C@H](NC(=O)[C@H](Cc1ccccc1)NC(=O)[C@H](CCCN)NC(=O)C(C)(C)NC(=O)[C@H](CCC(N)=O)NC(=O)[C@H](C)NC(=O)[C@H](CCCCNC(=O)COCCOCCNC(=O)CC[C@H](NC(=O)CCCCCCCCCCCCCCCCC(=O)O)C(=O)O)NC(=O)[C@H](CCCN)NC(=O)[C@H](CC(=O)O)NC(=O)[C@H](CC(C)C)NC(=O)[C@](C)(CC(C)C)NC(=O)[C@@H](NC(=O)[C@](C)(CO)NC(=O)[C@H](Cc1ccncc1)NC(=O)[C@H](CC(=O)O)NC(=O)[C@H](CO)NC(=O)[C@@H](NC(=O)[C@](C)(Cc1ccccc1F)NC(=O)[C@@H](NC(=O)CNC(=O)[C@H](CCC(N)=O)NC(=O)C(C)(C)NC(=O)[C@@H](N)Cc1ccc(O)cc1)[C@@H](C)O)[C@@H](C)O)[C@@H](C)CC)C(=O)N[C@H](CCC(=O)O)C(=O)N[C@@](C)(Cc1ccc(O)cc1)C(=O)N[C@@H](CC(C)C)C(=O)N[C@@H](CC(C)C)C(=O)N[C@@H](CCC(=O)O)C(=O)NCC(=O)NCC(=O)N1CCC[C@H]1C(=O)N[C@@H](CO)C(=O)N[C@@H](CO)C(=O)NC(C)(C)C(=O)N[C@@H](CCC(=O)O)C(=O)N1CCC[C@H]1C(=O)N1CCC[C@H]1C(=O)N1CCC[C@H]1C(=O)N[C@@H](CCC(=O)O)C(N)=O [Example 380] (H-Y[Aib]QGT[αMePhe(2-F)]TSD[4Pal][αMeS]I[αMeL]LD[Orn]K([AEEA-γGlu-C18 diacid])AQ[Aib][Orn]FI[dE][αMeY]LLEGGPSS[Aib]EPPPE-NH2) | 0.0346 | 0.354 | 1.17 |  |  |  |
|  |  |  | CC[C@H](C)[C@H](NC(=O)[C@H](CC(C)C)NC(=O)[C@H](Cc1ccc(O)cc1)NC(=O)[C@H](CCC(=O)O)NC(=O)[C@@H](NC(=O)[C@H](Cc1ccccc1)NC(=O)[C@H](C)NC(=O)C(C)(C)NC(=O)[C@H](CCC(N)=O)NC(=O)[C@H](C)NC(=O)[C@H](CCCCNC(=O)COCCOCCNC(=O)COCCOCCNC(=O)CC[C@H](NC(=O)CCCCCCCCCCCCCCCCCCC(=O)O)C(=O)O)NC(=O)[C@H](CCCCN)NC(=O)[C@H](CC(=O)O)NC(=O)[C@H](CC(C)C)NC(=O)[C@](C)(CC(C)C)NC(=O)[C@@H](NC(=O)[C@](C)(CO)NC(=O)[C@H](Cc1ccc(O)cc1)NC(=O)[C@H](CC(=O)O)NC(=O)[C@H](CO)NC(=O)[C@@H](NC(=O)[C@H](Cc1ccccc1)NC(=O)[C@@H](NC(=O)CNC(=O)[C@H](CCC(N)=O)NC(=O)C(C)(C)NC(=O)[C@@H](N)Cc1ccc(O)cc1)[C@@H](C)O)[C@@H](C)O)[C@@H](C)CC)[C@@H](C)CC)C(=O)N[C@@H](CCC(=O)O)C(=O)NCC(=O)NCC(=O)N1CCC[C@H]1C(=O)N[C@@H](CO)C(=O)N[C@@H](CO)C(=O)NCC(=O)N[C@@H](C)C(=O)N1CCC[C@H]1C(=O)N1CCC[C@H]1C(=O)N1CCC[C@H]1C(=O)N[C@@H](CO)C(N)=O [Example 382] (H-Y[Aib]QGTFTSDY[αMeS]I[αMeL]LDKK([AEEA-AEEA-γGlu-C20 diacid])AQ[Aib]AFIEYLIEGGPSSGAPPPS-NH2) | 0.0368 | 0.291 | 3.72 | 17.7 | 61.5 | 1050 |
